Data taken from patent US6479531B1, “Gastrin and cholecystokinin receptor ligands” (James Black Foundation Limited, priority 1998, dated 2002).

Experiments:
[1] = biological target: T1, CCKB receptor (Mus musculus, UniProt P56481); test: CCKB receptor radioligand binding assay in mouse cortical membranes; conditions: [125I]-CCK8(S) 200 pM, 150 min at 21±3°, read-out: CCKB pKi (converted)
T1 construct: The whole brains from male mice (CD1 22-25 g; Charles River) were removed; from tissue; host or cells: cerebral cortex membranes of male CD1 mice
T1 sequence (P56481 1-453): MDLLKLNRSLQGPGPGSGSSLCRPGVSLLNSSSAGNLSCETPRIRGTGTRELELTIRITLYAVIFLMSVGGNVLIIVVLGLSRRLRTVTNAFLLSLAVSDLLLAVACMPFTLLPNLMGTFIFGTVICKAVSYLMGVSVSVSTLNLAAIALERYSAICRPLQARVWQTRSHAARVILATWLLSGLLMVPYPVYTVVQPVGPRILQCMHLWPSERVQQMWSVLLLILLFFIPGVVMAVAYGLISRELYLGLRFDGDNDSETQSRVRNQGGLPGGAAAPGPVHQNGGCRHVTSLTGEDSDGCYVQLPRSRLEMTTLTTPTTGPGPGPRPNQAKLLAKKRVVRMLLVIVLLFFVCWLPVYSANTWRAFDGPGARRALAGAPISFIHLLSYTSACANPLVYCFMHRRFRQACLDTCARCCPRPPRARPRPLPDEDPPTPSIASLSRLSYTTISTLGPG
Summary of the method: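 Bound radioactivity was gamma-counted after rapid GF/B filtration and cold 50 mM Tris-HCl (pH 7.4) washes. The tissue was cerebral cortex from male CD1 mice, prepared as twice-centrifuged membranes in pH 7.2 HEPES/NaCl/KCl/MgCl2/EDTA buffer with bacitracin at 20 mg/ml original wet weight.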

[2] = biological target: T2, gastrin receptor (Rattus norvegicus, UniProt P30553); test: gastrin antagonist activity in immature rat stomach assay (pentagastrin dose-response, acid secretion); conditions: isolated immature rat stomach, cumulative pentagastrin dose-response curves, read-out: Gastrin pKb (converted)
T2 construct: The stomach was excised and flushed with ca. 1 ml of unbuffered physiological saline solution; from tissue; host or cells: isolated whole stomach of immature rats (ca. 21 days old)
T2 sequence (P30553 1-452): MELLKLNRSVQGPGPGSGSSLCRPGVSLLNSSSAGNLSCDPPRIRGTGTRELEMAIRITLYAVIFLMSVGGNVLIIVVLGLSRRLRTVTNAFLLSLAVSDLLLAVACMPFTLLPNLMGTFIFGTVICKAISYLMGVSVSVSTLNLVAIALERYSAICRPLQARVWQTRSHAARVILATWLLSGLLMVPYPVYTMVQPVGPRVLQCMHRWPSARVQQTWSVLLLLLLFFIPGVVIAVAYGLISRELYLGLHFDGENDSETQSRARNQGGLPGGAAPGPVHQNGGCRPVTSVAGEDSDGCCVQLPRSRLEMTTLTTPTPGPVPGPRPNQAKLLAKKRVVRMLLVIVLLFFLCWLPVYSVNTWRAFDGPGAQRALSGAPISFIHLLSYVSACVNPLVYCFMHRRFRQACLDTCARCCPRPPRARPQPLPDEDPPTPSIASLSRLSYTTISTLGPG
Summary of the method: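 Gastrin antagonism was measured as the effect on cumulative pentagastrin dose-response curves of acid output, recorded by pH electrode in the perfusate of an excised immature rat stomach (ca. 21 days old). Test compound was placed in the serosal bath (37°, 3×10^−8 M 5-methylfurmethide) 60 min before pentagastrin.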

Compound	Ki [1] [nM]	Kb [2] [nM]
O=C(O)c1cccc(NC(=O)c2nc(CC3CCCCC3)[nH]c2CCC23CC4CC(CC(C4)C2)C3)c1 [Example 193, 3-{[5-(2-Adamantan-1-yl-ethyl)-2-cyclohexylmethyl-1H-imidazole-4-carbonyl]-amino}-benzoic Acid]	57.5	20.4
O=C(O)c1cc(NC(=O)c2[nH]c(-c3ccccc3)nc2CC2CCCCCC2)cc(C(=O)O)c1 [Example 24, 5-[(5-Cycloheptylmethyl-2-phenyl-1H-imidazole-4-carbonyl)-amino]-isophthalic Acid]	1000	479
O=C(O)c1cccc(NC(=O)c2nc(-c3ccccc3)[nH]c2CC2CCCCCC2)c1 [Example 26, 3-[(5-Cycloheptylmethyl-2-phenyl-1H-imidazole-4-carbonyl)-amino]-benzoic Acid]	1480	407
Cc1ccccc1-c1nc(C(=O)NCC(=O)Nc2cccc(C(=O)O)c2)c(CCC23CC4CC(CC(C4)C2)C3)[nH]1 [Example 103]	263	661
O=C(O)c1cccc(NC(=O)c2nc(-c3ccc(O)cc3)[nH]c2CCC23CC4CC(CC(C4)C2)C3)c1 [Example 63, 3-{[5-(2-Adamantan-1-yl-ethyl)-2(4-hydroxy-phenyl)-1H-imidazole-4-carbonyl]-amino}-benzoic Acid]	1100	1620
O=C(O)c1cccc(NC(=O)c2nc(C3CCCCC3)[nH]c2CCCC23CC4CC(CC(C4)C2)C3)c1 [Example 171, 3-{[5-(3-Adamantan-1-yl-propyl)-2-cyclohexyl-1H-imidazole-4-carbonyl]-amino}-benzoic Acid]	141	38.9
Cc1ccccc1-c1nc(C(=O)Nc2cccc(C(=O)O)c2)c(CCC2CCCCC2)[nH]1 [Example 89, 3-{[5-(2-Cyclohexyl-ethyl)-2-o-tolyl-1H-imidazole-4-carbonyl]-amino}-benzoic Acid]	676	20
Cc1cc(F)ccc1-c1nc(C(=O)Nc2cccc(C(=O)O)c2)c(CCC23CC4CC(CC(C4)C2)C3)[nH]1 [Example 96, 3-{[5-(2-Adamantan-1-yl-ethyl)-2-(4-fluoro-2-methyl-phenyl)-1H-imidazole-4-carbonyl]-amino}-benzoic Acid]	166	12.3
O=C(O)c1cccc(NC(=O)c2nc(-c3c(Cl)cccc3Cl)[nH]c2CCC23CC4CC(CC(C4)C2)C3)c1 [Example 148, 3-{[5-(2-Adamantan-1-yl-ethyl)-2-(2,6-dichlorophenyl)-1H-imidazole-4-carbonyl]-amino}-benzoic Acid]	102	53.7
O=C(O)c1cc(NC(=O)c2nc(C3CCCCC3)[nH]c2CCC23CC4CC(CC(C4)C2)C3)ccc1F [Example 254, 5-{[5-(2-Adamantan-1-yl-ethyl)-2-cyclohexyl-1H-imidazole-4-carbonyl]-amino}-2-fluoro-benzoic Acid]	12.6	11.7
O=C(O)c1cccc(NC(=O)c2nc(C3CCCCC3)[nH]c2CCC2CCCCCC2)c1 [Example 166, 3-{[5-(2-Cycloheptyl-ethyl)-2-cyclohexyl-1H-imidazole-4-carbonyl]-amino}-benzoic Acid]	135	12.9
O=C(O)c1cccc(NC(=O)c2nc(C3CC4CCC3C4)[nH]c2CCC23CC4CC(CC(C4)C2)C3)c1 (racemic) [Example 114, (±)-endo-3-{[5-(2-Adamantan-1-yl-ethyl)-2-bicyclo[2.2.1]hept-2-yl-1H-imidazole-4-carbonyl]-amino}-benzoic Acid]	31.6	2.24
O=C(O)c1cccc(NC(=O)c2nc(-c3cccc(Cl)c3Cl)[nH]c2CCC23CC4CC(CC(C4)C2)C3)c1 [Example 69, 3-{[5-(2-Adamantan-1-yl-ethyl)-2-(2,3-dichloro-phenyl)-1H-imidazole-4-carbonyl]-amino}-benzoic Acid]	398	89.1
Cc1ccc(NC(=O)c2nc(C3CCCCC3)[nH]c2CCC2C3CC4CC(C3)CC2C4)cc1C(=O)O (stereo not shown) [Example 173, 5-{[5-(2-Adamantan-2-yl-ethyl)-2-cyclohexyl-1H-imidazole-4-carbonyl]-amino}-2-methyl-benzoic Acid]	6.17	4.79

Results, then the compound that gave them:

Ki [1] [nM]	Kb [2] [nM]	Compound
145	646	Cc1ccc(NC(=O)c2nc(-c3cccc(Cl)c3Cl)[nH]c2CCC23CC4CC(CC(C4)C2)C3)cc1C(=O)O [Example 150, 5-{[5-(2-Adamantan-1-yl-ethyl)-2-(2,3-dichlorophenyl)-1H-imidazole-4-carbonyl]-amino}-2-methyl-benzoic Acid]
21.9	15.8	CCCC(CCC)c1nc(C(=O)Nc2ccc(C)c(C(=O)O)c2)c(CCC23CC4CC(CC(C4)C2)C3)[nH]1 [Example 126, 5-{[5-(2-Adamantan-1-yl-ethyl)-2-(1-propyl-butyl)-1H-imidazole-4-carbonyl]-amino}-2-methyl-benzoic Acid]
12.3	316	CCc1ccccc1-c1nc(C(=O)Nc2ccc(C)c(C(=O)O)c2)c(CCC23CC4CC(CC(C4)C2)C3)[nH]1 [Example 159, 5-{[5-(2-Adamantan-1-yl-ethyl)-2-(2-ethyl-phenyl)-1H-imidazole-4-carbonyl]-amino}-2-methyl-benzoic Acid]
8.71	8.13	Cc1ccc(NC(=O)c2nc(C(C)(C)C)[nH]c2CCC23CC4CC(CC(C4)C2)C3)cc1C(=O)O [Example 198, 5-{[5-(2-Adamantan-1-yl-ethyl)-2-tert-butyl-1H-imidazole-4-carbonyl]-amino}-2-methyl-benzoic Acid]
2.09	1.1	Cc1ccc(NC(=O)c2nc(C3CC4CCC3C4)[nH]c2CCC23CC4CC(CC(C4)C2)C3)cc1C(=O)O (racemic) [Example 209, (±)-endo-5-{[5-(2-Adamantan-1-yl-ethyl)-2-bicyclo[2.2.1]hept-2-yl-1H-imidazole-4-carbonyl]-amino}-2-methyl-benzoic Acid]
28.8	67.6	Cc1ccc(NC(=O)c2nc(C3CCC4CC3C4(C)C)[nH]c2CCC23CC4CC(CC(C4)C2)C3)cc1C(=O)O (stereo not shown) [Example 191, 5-{[5-(2-Adamantan-1-yl-ethyl)-2-(6,6-dimethyl-bicyclo[3.1.1]hept-2-yl)-1H-imidazole-4-carbonyl]-amino}-2-methyl-benzoic Acid]
